Data published in patent US6228985A, “Derivatives of aminobenzoic and aminobiphenylcarboxylic acids useful as anti-cancer agents” (Schering Corporation, priority 1998, dated 2001).
pIC50, pKd: −log10 of the molar value.

How the values were obtained:
uPAR [1] = molecular target: T1, uPAR (Homo sapiens, UniProt Q03405); test: cell-based, competition radioligand binding assay (specific binding of c-[125I-Tyr24]-ATFp to DU-145 cells); conditions: radioligand c-[125I-Tyr24]-ATFp 3 nM (1.5 Kd), 4° C. for 90 min, duplicate tubes, 2-3 independent experiments
T1 construct: these cells express high levels of unoccupied uPA receptors; endogenous in cells; host or cells: DU-145 human prostate cancer cells (intact cells, harvested with trypsin/EDTA)
T1 sequence (Q03405 23-335): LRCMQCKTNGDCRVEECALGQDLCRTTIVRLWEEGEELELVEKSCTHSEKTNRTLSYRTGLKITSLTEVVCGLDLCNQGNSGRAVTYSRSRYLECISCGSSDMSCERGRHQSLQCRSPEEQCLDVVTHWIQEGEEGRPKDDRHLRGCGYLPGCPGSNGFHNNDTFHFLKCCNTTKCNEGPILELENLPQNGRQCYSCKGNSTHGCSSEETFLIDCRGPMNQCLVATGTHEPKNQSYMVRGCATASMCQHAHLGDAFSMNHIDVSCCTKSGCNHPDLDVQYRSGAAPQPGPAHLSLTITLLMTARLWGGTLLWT
Procedure: The following assay procedure, which is a cell-based, competition radioligand binding assay, was carried out to determine the activity of the foregoing compounds as uPAR antagonists.
Radioligand Preparation. The minimal receptor-binding sequence of uPA was determined by Apella et al., J. Biol. Chem. 262:4437-4440 (1987), utilizing non-radioactive peptides as competition for a larger uPA radioligand. Our assay was developed and characterized using an iodinated version of the minimal receptor binding sequence of human uPA (residues 12-32, Ala^19). The 21-amino acid peptide (cyclized), referred to herein as "c-ATFp", was synthesized and iodinated as follows: 10 ug of c-ATFp was iodinated with 1 mCi Na^125 I, using the Chloramine-T method (Iodo-Beads, Pierce Chemical Co.); iodinated peptide was separated from unincorporated iodine with Sep-Pak C18 cartridges (Millipore), and the C18-bound peptide was eluted with acetonitrile. This procedure routinely yielded a radioiodinated c-ATFp (c-[^125 I-Tyr^24 ]-ATFp) with specific activity of 105 Ci/mmol: [drawing 101]
Determination of Radioligand Binding. DU-145, a human prostate cancer cell line, was selected for radioligand binding assays because these cells express high levels of unoccupied uPA receptors (approximately 500,000 receptors/cell). Subconfluent, 2 day cultures of DU-145 cells were prepared for radioligand binding assays by harvesting monolayers with trypsin/EDTA. The cells were washed one time with serum-free Dulbecco's Modified Eagle Medium (DMEM), and suspended at a cell density of 250,000 cells/ml in ice-cold DME containing 0.1% bovine serum albumin. Test compounds were solubilized in DMSO at 2 mg/ml and subsequently diluted in phosphate buffered saline to prepare stock concentrations of 200 ug/ml, 20 ug/ml, 2 ug/ml, 0.2 ug/ml, and 0.02 ug/ml. The binding reactions were initiated by addition of 1.0 ml cell suspension to microcentrifuge tubes containing 10 ul of: the indicated test compound solutions, or appropriately diluted DMSO controls, and c-[^25 ]-Tyr^24 ]-ATFp, such that the final concentration of radioligand was 3 nM (1.5 Kd). To control for specific binding, parallel reaction tubes were prepared containing 1,000-fold excess unlabeled c-ATFp. Reaction tubes were incubated with rocking at 4° C. for 90 min. Binding was terminated by 4° C. centrifugation at 800× g for 1 min in a refrigerated microcentrifuge. Unbound radioligand was removed by aspirating the reaction medium, adding fresh, ice-cold DMEM, 0.1% bovine serum albumin to the pelleted cells, and then quickly re-centrifuging and aspirating the wash from the cell pellet. The washing steps were completed in 2-4 minutes by this method, depending on the number of tubes in each experiment. Tips of microcentrifuge tubes containing the cell pellets were snipped and transferred to counting tubes. Radioactivity bound to the cells was determined in a gamma counter.
Specific binding of the radioligand was calculated as the difference between the amount of c-[^125 I-Tyr^24 ]-ATFp bound in the absence (total binding) and presence (non-specific binding) of the unlabeled c-ATFp. The efficacy of test compounds for inhibiting specific binding of c-[^125 I-Tyr^24 ]-ATFp was determined by plotting a graph of specific binding (y-axis) as a function of test compound concentration (x-axis). The concentration of test compound required to inhibit 50% of the specific binding (lC50) was determined from the plot. The IC50 may be directly converted mathematically to Ki, which is a measure of the receptor binding affinity of the compounds under the defined assay conditions. Test compounds were evaluated in duplicate tubes, in 2-3 independent binding experiments.

uPA:uPAR interaction = conditions: cited from earlier work
uPAR [2] = conditions: cited from earlier work

Molecule | pIC50 (uPAR [1]) | further results
CC(=O)N[C@@H](Cc1c[nH]c2ccccc12)C(=O)Nc1ccc(-c2ccc(C(=O)NCCc3ccccc3)cc2)cc1 [Example 11-W] | 6.45 | –
CC(=O)N[C@@H](Cc1c[nH]c2ccccc12)C(=O)Nc1ccc(-c2ccc(C(N)=O)cc2)cc1 [Example 12-Y] | 7.04 | –
CC(=O)N[C@@H](Cc1c[nH]c2ccccc12)C(=O)Nc1ccc(-c2ccc(C(=O)N[C@@H](Cc3ccccc3)C(N)=O)cc2)cc1 [Example 10-U] | 7.36 | –
O=C(O)C[C@H](NC(=O)c1ccc(-c2ccc(NC(=O)[C@H](Cc3c[nH]c4ccccc34)NC(=O)OCC3c4ccccc4-c4ccccc43)cc2)cc1)C(=O)O [Example 9-C] | 6.52 | –
Cc1ccc(C(=O)Nc2ccc(S(=O)(=O)O)c3cc(S(=O)(=O)O)cc(S(=O)(=O)O)c23)cc1NC(=O)c1cccc(NC(=O)Nc2cccc(C(=O)Nc3cc(C(=O)Nc4ccc(S(=O)(=O)O)c5cc(S(=O)(=O)O)cc(S(=O)(=O)O)c45)ccc3C)c2)c1 [suramin] | – | inhibition of the uPA:uPAR interaction (uPA:uPAR interaction): inhibit the uPA:uPAR interaction
uPA,12-32: The critical domain alone (uPA,12-32); residues 12-32 of the EGF-like domain of uPA (DCLNGGTCVSNKYFSNIHWCN; UniProt P00749 32-52, looked up, fragment) | – | pKd (uPAR [2]; critical domain alone (uPA,12-32), read-out: affinity): 7.40; affinity relative to intact ATF (fold less) (uPAR [2]; less than intact ATF): about 100 fold
O=C(N[C@@H](Cc1c[nH]c2ccccc12)C(=O)Nc1ccc(-c2ccc(C(=O)N[C@@H](Cc3c[nH]c4ccccc34)C(=O)O)cc2)cc1)OCC1c2ccccc2-c2ccccc21 [Example 8-E] | 6.51 | –
O=C(N[C@@H](Cc1c[nH]c2ccccc12)C(=O)Nc1ccc(-c2ccc(C(=O)N[C@@H](Cc3ccccc3)C(=O)O)cc2)cc1)OCC1c2ccccc2-c2ccccc21 [Example 8-D] | 6.72 | –
CC(=O)N[C@@H](Cc1c[nH]c2ccccc12)C(=O)Nc1ccc(-c2ccc(C(=O)O)cc2)cc1 [Example 8-R] | 5.82 | –
CC(=O)N[C@@H](Cc1c[nH]c2ccccc12)C(=O)Nc1ccc(-c2cccc(C(=O)N[C@@H](Cc3ccccc3)C(=O)O)c2)cc1 [Example 8-O] | 6.78 | –
CC(=O)N[C@@H](Cc1c[nH]c2ccccc12)C(=O)Nc1ccc(-c2ccc(C(=O)N[C@@H](CC(=O)O)C(=O)O)cc2)cc1 [Example 9-H] | 7.22 | –
CC(=O)N[C@@H](Cc1c[nH]c2ccccc12)C(=O)NCc1ccccc1-c1ccc(C(=O)N[C@@H](Cc2ccccc2)C(=O)O)cc1 [Example 8-P] | 7.15 | –

Further lines, with some results ahead:

pIC50 (uPAR [1]) | Molecule | further results
8.52 | CC(=O)N[C@@H](Cc1c[nH]c2ccccc12)C(=O)Nc1ccc(-c2ccc(C(=O)N[C@@H](Cc3ccc(O)cc3)C(=O)O)cc2)cc1 [Example 9-T] | –
7.70 | O=C(Cc1c[nH]c2ccccc12)Nc1ccc(-c2ccc(C(=O)N[C@@H](Cc3ccccc3)C(=O)O)cc2)cc1 [Example 8-A] | –
9.10 | CC(=O)N[C@@H](Cc1c[nH]c2ccccc12)C(=O)Nc1cccc(-c2ccc(C(=O)N[C@@H](Cc3ccccc3)C(=O)O)cc2)c1 [Example 8-N] | –
8.40 | CC(=O)N[C@H](Cc1c[nH]c2ccccc12)C(=O)Nc1ccc(-c2ccc(C(=O)N[C@@H](Cc3ccccc3)C(=O)O)cc2)cc1 [Example 8-K] | –
8.74 | CC(=O)N[C@@H](Cc1c[nH]c2ccccc12)C(=O)Nc1ccc(-c2ccc(C(=O)N[C@@H](Cc3ccccc3)C(=O)O)cc2)cc1 [Example 8-J] | –
9.05 | CC(=O)N[C@@H](Cc1c[nH]c2ccccc12)C(=O)Nc1ccc(-c2ccc(C(=O)NCCC(=O)O)cc2)cc1 [Example 8-F] | –
7.74 | CC(=O)N[C@@H](Cc1ccccc1)C(=O)Nc1ccc(-c2ccc(C(=O)N[C@@H](Cc3ccccc3)C(=O)O)cc2)cc1 [Example 8-Q] | –
8.10 | CC(=O)N[C@@H](Cc1c[nH]c2ccccc12)C(=O)Nc1ccc(-c2ccc(C(=O)N[C@H](Cc3ccccc3)C(=O)O)cc2)cc1 [Example 8-L] | –
8.89 | CC(=O)N[C@@H](Cc1c[nH]c2ccccc12)C(=O)Nc1ccc(-c2ccc(C(=O)N[C@@H](CC(=O)O)C(N)=O)cc2)cc1 [Example 10-V] | –
7.74 | CC(=O)N[C@H](Cc1c[nH]c2ccccc12)C(=O)Nc1ccc(-c2ccc(C(=O)NCCC(=O)O)cc2)cc1 [Example 8-G] | –
8.22 | CC(=O)N[C@@H](CCC(N)=O)C(=O)Nc1ccc(-c2ccc(C(=O)N[C@@H](Cc3ccccc3)C(=O)O)cc2)cc1 [Example 9-S] | –
7.77 | CC(=O)N[C@H](Cc1c[nH]c2ccccc12)C(=O)Nc1ccc(-c2ccc(C(=O)N[C@@H](CC(=O)O)C(=O)O)cc2)cc1 [Example 9-I] | –
7.55 | CC(=O)N[C@@H](Cc1c[nH]c2ccccc12)C(=O)Nc1ccc(C(=O)N[C@@H](Cc2ccccc2)C(=O)O)cc1 [Example 8-M] | –
